Data from patent US11866518B2, “Bicyclic peptide ligands specific for TSLP” (BicycleTx Limited, priority 2020, dated 2024).
*1 amine or outer side, *2 acyl side, *3 side chain or, on linkers, in order; H or OH if unused. Where a SMILES comes first, the peptide text is derived from it. Bridges are numbered along the chain shown (N, C = ends). TATA = O=C(CC[*:1])N1CN(C(=O)CC[*:2])CN(C(=O)CC[*:3])C1

Assays:
[1] = target: T1, TSLP (Homo sapiens, UniProt Q969D9); experiment: Human TSLP Surface Plasmon Resonance (SPR) binding assay; set-up: The resulting construct spCD33-6×HN-TEV-hTSLP(29-159)-Avi; 6xHN tag with TEV site (N, cleaved yes); made in house; host or cells: Expi293F cells; conditions: biotinylated human TSLP immobilized on streptavidin chip; 20° C.; steady-state or kinetic 1:1 fit; read-out: hTSLP SPR Kd
T1 sequence (Q969D9 29-159): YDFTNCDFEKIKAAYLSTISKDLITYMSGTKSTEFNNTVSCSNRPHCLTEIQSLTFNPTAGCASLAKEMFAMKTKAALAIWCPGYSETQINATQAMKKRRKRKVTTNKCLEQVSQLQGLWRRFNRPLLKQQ

[2] = target: T1, TSLP; experiment: Human peripheral blood mononuclear cell assay (TSLP-induced CCL17/TARC); type: cell-based; set-up: host or cells: added to human PBMCs from healthy donors; conditions: read-out: CCL17 % Inhibition @ 10 μM, […] TSLP
Protocol: Human peripheral blood mononuclear cells (PMBCs) were obtained from heparinized whole blood (healthy donors) by density gradient centrifugation using Lymphoprep (StemCell Technologies, Vancouver, BC) according to the manufacturers instructions. The PBMCs were washed twice with PBS containing 2 mM EDTA and 2% fetal calf serum (FCS) and reconstituted in RPMI containing 10% FCS and 2% PenStrep at a final concentration of 3 million cells/mL. This cell suspension (100 μL) was aliquoted into the wells of a 96-well flat bottom tissue culture plate. 5 μL of bicycle peptide or vehicle (0.1% DMSO in complete medium) was then added and mixed with 5 μL of TSLPvehicle (complete medium). […] The plate was incubated for 30 minutes are rt. 10 μL of this mixture was added to cells and the plate was incubated for 24 hours in a 10% CO2, humidified incubator at 37° C. The plate was centrifuged at 300×g for 5 min and the collected supernatants frozen at −20° C. for subsequent CCL17/TARC analysis.
CCL17/TARC was determined by MSD (MesoScale Discovery, Maryland, USA) according to the manufacturer's instructions.

Row | Structure (SMILES) | Kd [1] | inhibition at 10 µM [2]
1 | CC(C)C[C@@H]1NC(=O)[C@H](Cc2c[nH]c3ccccc23)NC(=O)[C@H](CCC(N)=O)NC(=O)[C@@H](NC(=O)[C@H](C)N)CSCCC(=O)N2CN3CN(C2)C(=O)CCSC[C@H](NC(=O)[C@H](CC(=O)O)NC(=O)[C@H](CCC(=O)O)NC1=O)C(=O)N[C@@H](Cc1c[nH]c2ccccc12)C(=O)N[C@@H](CCCNC(=N)N)C(=O)NCC(=O)N[C@@H](Cc1ccccc1)C(=O)N[C@H](C(=O)N[C@@H](CO)C(=O)N[C@@H](CO)C(=O)N[C@@H](CO)C(=O)N[C@@H](CC(=O)O)C(=O)N[C@@H](CCC(N)=O)C(=O)N[C@@H](CO)C(N)=O)CSCCC3=O [Example 59, A-(SEQ ID NO: 38)-SSSDQS] | 52 nM | 2%
2 | CC(C)C[C@@H]1NC(=O)[C@H](Cc2c[nH]c3ccccc23)NC(=O)[C@H]([C@@H](C)O)NC(=O)[C@@H](NC(=O)[C@H](C)N)CSCCC(=O)N2CN3CN(C2)C(=O)CCSC[C@H](NC(=O)[C@H](CC(=O)O)NC(=O)[C@H](CCC(=O)O)NC1=O)C(=O)N[C@@H](Cc1c[nH]c2ccccc12)C(=O)N[C@@H](CCCNC(=N)N)C(=O)NCC(=O)N[C@@H](Cc1ccccc1)C(=O)N[C@H](C(=O)N[C@@H](C)C(=O)N[C@@H](CC(=O)O)C(=O)N[C@@H](CO)C(N)=O)CSCCC3=O [Example 63, A-(SEQ ID NO: 49)-ADS] (H-ACTWLEDCWRGFCADS-NH2; linker 2-8-13 via TATA; N-terminus assumed) | 65 nM | 24%
3 | CC(C)C[C@@H]1NC(=O)[C@H](Cc2c[nH]c3ccccc23)NC(=O)[C@H](C(C)C)NC(=O)[C@@H](NC(=O)[C@@H]2CCCN2C(=O)[C@@H]2CCCN2C(=O)[C@@H](N)CO)CSCCC(=O)N2CN3CN(C2)C(=O)CCSC[C@H](NC(=O)[C@H](CC(=O)O)NC(=O)[C@H](CC(=O)O)NC1=O)C(=O)N[C@@H](Cc1c[nH]c2ccccc12)C(=O)N[C@@H](CCCNC(=N)N)C(=O)NCC(=O)N[C@@H](Cc1ccccc1)C(=O)N[C@H](C(=O)N[C@@H](C)C(N)=O)CSCCC3=O [Example 73, SPP-(SEQ ID NO: 54)-A] (H-SPPCVWLDDCWRGFCA-NH2; linker 4-10-15 via TATA; N-terminus and C-terminus assumed) | 85 nM | -11%
4 | CC(=O)N[C@H]1CSCCC(=O)N2CN3CN(C2)C(=O)CCSC[C@H](NC(=O)[C@H](CC(=O)O)NC(=O)[C@H](CCC(=O)O)NC(=O)[C@H](CC(C)C)NC(=O)[C@H](Cc2c[nH]c4ccccc24)NC(=O)[C@H](CCC(N)=O)NC1=O)C(=O)N[C@@H](Cc1c[nH]c2ccccc12)C(=O)N[C@@H](CCCNC(=N)N)C(=O)NCC(=O)N[C@@H](Cc1cccc(C)c1)C(=O)N[C@H](C(N)=O)CSCCC3=O [Example 74, Ac-(SEQ ID NO: 55)] | 91 nM | 43%
5 | CC(C)C[C@H](NC(=O)[C@H](Cc1c[nH]cn1)NC(=O)[C@@H]1CSCCC(=O)N2CN3CN(C2)C(=O)CCSC[C@H](NC(=O)[C@H](CC(=O)O)NC(=O)[C@H](CCC(=O)O)NC(=O)[C@H](CC(C)C)NC(=O)[C@H](Cc2c[nH]c4ccccc24)NC(=O)[C@H](Cc2c[nH]cn2)NC(=O)[C@@H](NC(=O)[C@H](C)N)CSCCC3=O)C(=O)N[C@@H](Cc2c[nH]c3ccccc23)C(=O)N[C@@H](CCCNC(=N)N)C(=O)NCC(=O)N[C@@H](Cc2ccccc2)C(=O)N1)C(=O)N[C@@H](CCC(=O)O)C(N)=O [Example 75, A-(SEQ ID NO: 56)-HLE] (H-ACHWLEDCWRGFCHLE-NH2; linker 2-8-13 via TATA) | 92 nM | -2%
6 | CC(C)C[C@@H]1NC(=O)[C@H](Cc2c[nH]c3ccccc23)NC(=O)[C@H](Cc2c[nH]c3ccccc23)NC(=O)[C@H](CO)NC(=O)[C@H](CO)NC(=O)[C@@H]2CSCCC(=O)N3CN(CN(C3)C(=O)CCSC[C@@H](C(=O)N[C@@H](C)C(N)=O)NC1=O)C(=O)CCSC[C@H](NC(=O)[C@H](C)N)C(=O)N[C@@H](CCCNC(=N)N)C(=O)N[C@@H](CC(=O)O)C(=O)N[C@@H](CC(C)C)C(=O)N[C@@H](CC(=O)O)C(=O)N1CCC[C@H]1C(=O)N[C@@H](Cc1c[nH]c3ccccc13)C(=O)N[C@@H]([C@@H](C)O)C(=O)N2 [Example 164, A-(SEQ ID NO: 122)-A] | 98 nM | 0%
7 | CC(C)C[C@@H]1NC(=O)[C@H](Cc2c[nH]c3ccccc23)NC(=O)[C@H](Cc2c[nH]c3ccccc23)NC(=O)[C@H](CC(N)=O)NC(=O)[C@@H]2CCCN2C(=O)[C@@H]2CSCCC(=O)N3CN(CN(C3)C(=O)CCSC[C@H](NC(=O)[C@@H]3CCCN3C(=O)[C@H](Cc3c[nH]cn3)NC(=O)[C@H](C)N)C(=O)N[C@@H](C)C(=O)N[C@@H](CC(=O)O)C(=O)N[C@@H](CC(C)C)C(=O)N[C@@H](CC(=O)O)C(=O)N3CCC[C@H]3C(=O)N[C@@H](Cc3c[nH]c4ccccc34)C(=O)N[C@@H]([C@@H](C)O)C(=O)N2)C(=O)CCSC[C@@H](C(=O)N[C@@H](C)C(N)=O)NC1=O [Example 165, AHP-(SEQ ID NO: 123)-A] (H-AHPCADLDPWTCPNWWLCA-NH2; linker 4-12-18 via TATA; N-terminus and C-terminus assumed) | 30 nM | 33%
8 | CC(C)C[C@@H]1NC(=O)[C@H](Cc2c[nH]c3ccccc23)NC(=O)[C@H](Cc2c[nH]c3ccccc23)NC(=O)[C@H](CO)NC(=O)[C@H](CO)NC(=O)[C@@H]2CSCCC(=O)N3CN(CN(C3)C(=O)CCSC[C@H](NC(=O)[C@@H](NC(=O)[C@H](CCC(N)=O)NC(=O)[C@@H](NC(=O)[C@@H](NC(=O)[C@H](C)NC(=O)[C@@H](N)Cc3ccc(O)cc3)[C@@H](C)O)[C@@H](C)O)C(C)C)C(=O)N[C@@H](CCCNC(=N)N)C(=O)N[C@@H](CC(=O)O)C(=O)N[C@@H](CC(C)C)C(=O)N[C@@H](CC(=O)O)C(=O)N3CCC[C@H]3C(=O)N[C@@H](Cc3c[nH]c4ccccc34)C(=O)N[C@@H]([C@@H](C)O)C(=O)N2)C(=O)CCSC[C@@H](C(=O)N[C@@H](C)C(N)=O)NC1=O [Example 171, YATTQV-(SEQ ID NO: 122)-A] | 48 nM | 36%
9 | CC(C)C[C@@H]1NC(=O)[C@H](Cc2c[nH]c3ccccc23)NC(=O)[C@H](Cc2c[nH]c3ccccc23)NC(=O)[C@H](CC(=O)O)NC(=O)[C@H](CO)NC(=O)[C@@H]2CSCCC(=O)N3CN(CN(C3)C(=O)CCSC[C@H](NC(=O)[C@@H]3CCCN3C(=O)[C@H](C)NC(=O)[C@@H](N)CCCNC(=N)N)C(=O)N3CCC[C@H]3C(=O)N[C@@H](CC(=O)O)C(=O)N[C@@H](CC(C)C)C(=O)N[C@@H](CC(=O)O)C(=O)N3CCC[C@H]3C(=O)N[C@@H](Cc3c[nH]c4ccccc34)C(=O)N[C@@H]([C@@H](C)O)C(=O)N2)C(=O)CCSC[C@@H](C(=O)N[C@@H](C)C(N)=O)NC1=O [Example 187, RAP-(SEQ ID NO: 136)-A] (H-RAPCPDLDPWTCSDWWLCA-NH2; linker 4-12-18 via TATA; N-terminus and C-terminus assumed) | 86 nM | 11%
